One assay deals with T1, PDK1 (Homo sapiens, UniProt O15530).
T1 construct: His6 (N)
T1 sequence (O15530 51-556 limits assumed): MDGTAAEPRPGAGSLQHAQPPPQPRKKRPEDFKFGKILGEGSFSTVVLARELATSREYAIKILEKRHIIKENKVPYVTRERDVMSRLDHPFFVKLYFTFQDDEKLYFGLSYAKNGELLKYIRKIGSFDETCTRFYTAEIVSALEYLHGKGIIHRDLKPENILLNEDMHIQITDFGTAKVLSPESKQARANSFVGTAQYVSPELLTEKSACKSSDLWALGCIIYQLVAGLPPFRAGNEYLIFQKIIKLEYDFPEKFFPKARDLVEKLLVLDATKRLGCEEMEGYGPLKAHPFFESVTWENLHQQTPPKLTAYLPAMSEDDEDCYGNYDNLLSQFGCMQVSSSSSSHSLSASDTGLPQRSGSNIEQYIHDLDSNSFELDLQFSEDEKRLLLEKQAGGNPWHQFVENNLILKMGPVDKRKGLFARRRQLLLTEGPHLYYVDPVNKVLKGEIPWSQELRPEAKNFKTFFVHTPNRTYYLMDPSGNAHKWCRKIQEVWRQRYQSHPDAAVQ
The assay can be described thus: Test for the inhibition of PDK1 (flashplate, 33P-ATP). Conditions: His6-PDK1 3.4 nM, 4 μM ATP, 30° C., 60 min. The format is biochemical. The gist of the method: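 His6-PDK1(1-50) (3.4 nM) and a biotinylated peptide substrate (400 nM) were incubated 60 min at 30° C with 4 μM ATP containing ^33P-ATP and test compound. Incorporated radioactivity was counted after subtracting a 100 nM staurosporine blank and expressed as % of control; IC50 derived from these.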

Assay [1] relates to PDK1 kinase activity (phospho-T308-PKB) in PC3 cells. The assay can be described thus: Cellular testing of PDK1 kinase inhibitors in PC3 cells (Luminex, phospho-T308-PKB). Format: cell-based. Conditions: 30 min incubation, serum-free, read-out: IC50 PC3 cells [P-PKB T308]. On the procedure: Method for the Cellular Testing of PDK1 Kinase Inhibitors in PC3 Cells.
The cellular assay for the determination of the PDK1 kinase activity is carried out as a Luminex assay in the 96-well format. PC3 cells are shown at 20,000 cells per well in 100 μl of medium (45% of […]/45% of Ham's F12/10% of FCS) and incubated on the following day for 30 min with a serial dilution of the test substance (7 concentrations) under serum-free conditions. The cells are subsequently lysed using 90 μl of lysis buffer (20 mM tris/HCl pH 8.0, 150 mM NaCl, 1% of NP40, 10% of glycerol, 1% of phosphatase inhibitor I, 1% of phosphatase inhibitor II, 0.1% of protease inhibitor cocktail III, 0.01% of benzonase) per well, and the lysates are separated off from insoluble cell constituents by means of centrifugation through a 96-well filter plate (0.65 μm). The lysates are incubated overnight at 4° C. with shaking with Luminex beads to which an anti-total PKB antibody is coupled. The detection is carried out on the following day by addition of a phospho-T308-PKB antibody and a species-specific peroxidase-labelled secondary antibody. The detection of phospho-T308-PKB is carried out by measurement in a Luminex100 instrument by determination of 100 events per cavity in a measurement time of 60 sec. As pharmacological blank, the signals obtained from cells which have been treated with 10 μM staurosporin are subtracted from all other batches. The control value used for maximum phosphorylation of PKB on T308 are the signals from cells which have only been treated with the solvent (0.3% of DMSO). The values of the batches treated with test substance are calculated therefrom as percentage of control, and IC50 values are determined by means of RS1.

Results on 29 molecules are retold here after patent US8575163B2, “Pyrrolopyridinylpyrimidin-2-ylamine derivatives” (Merck Patent GmbH, priority 2009, dated 2013).

Molecules are shown by their SMILES. Like-named read-outs stand apart in the source and are kept apart here.

Regarding `Cn1cc(-c2cnc3[nH]cc(-c4cc(C(C)(O)c5ccncc5)nc(N)n4)c3c2)cn1` (single isomer, unassigned) [A41, 1-{2-amino-6-[5-(1-methyl-1H-pyrazol-4-yl)-1H-pyrrolo[2,3-b]pyridin-3-yl]-pyrimidin-4-yl}-1-pyridin-4-ylethanol], the IC50 on PDK1 was found to be 3.4 nM; in assay [1] (Homo sapiens, PC-3, 0.5 h), 980 nM.
Regarding `Cn1cc(-c2cnc3[nH]cc(-c4cc(C(C)(O)c5ccncc5)nc(N)n4)c3c2)cn1` (single isomer, unassigned) [A42, 1-{2-amino-6-[5-(1-methyl-1H-pyrazol-4-yl)-1H-pyrrolo[2,3-b]pyridin-3-yl]-pyrimidin-4-yl}-1-pyridin-4-ylethanol], the IC50 on PDK1 amounted to 3.2 nM; in assay [1] it was 950 nM.
As for `CC[C@](O)(c1ccncc1)c1cc(-c2c[nH]c3ncc(-c4cnn(CC(=O)N5CCCCC5)c4)cc23)nc(N)n1` (single isomer, unassigned) [A45], the IC50 was 8 nM on PDK1 and 348 nM in assay [1] (Homo sapiens, PC-3, 0.5 h).
For `Cn1cc(-c2cnc3[nH]cc(-c4cc(C(C)(O)c5ccccc5F)nc(N)n4)c3c2)cn1` (single isomer, unassigned) [A103, 1-{2-amino-6-[5-(1-methyl-1H-pyrazol-4-yl)-1H-pyrrolo[2,3-b]pyridin-3-yl]-pyrimidin-4-yl}-1-(2-fluorophenyl)ethanol] the same measures were 10 nM and 61 nM.
In the case of `Cn1cc(-c2cnc3[nH]cc(-c4cc(C(C)(O)c5ccccc5F)nc(N)n4)c3c2)cn1` (single isomer, unassigned) [A104, 1-{2-amino-6-[5-(1-methyl-1H-pyrazol-4-yl)-1H-pyrrolo[2,3-b]pyridin-3-yl]-pyrimidin-4-yl}-1-(2-fluorophenyl)ethanol], the IC50 on PDK1 stood at 16 nM; in assay [1], 41 nM.
For `CC[C@@](O)(c1ccc(F)cc1)c1cc(-c2c[nH]c3ncc(-c4cnn(C)c4)cc23)nc(N)n1` (single isomer, unassigned) [A121], the IC50 is 48 nM at PDK1 and 18 nM in assay [1] (Homo sapiens, PC-3, 0.5 h).
As to `CC[C@](O)(c1ccc(F)cc1)c1cc(-c2c[nH]c3ncc(-c4cnn(C)c4)cc23)nc(N)n1` (single isomer, unassigned) [A122], the IC50 against PDK1 was determined as 71 nM; in assay [1] (Homo sapiens, PC-3, 0.5 h), 18 nM.
For `Cn1cc(-c2cnc3[nH]cc(-c4cc([C@@](O)(c5ccccc5)C(F)(F)F)nc(N)n4)c3c2)cn1` (single isomer, unassigned) [A123] the same measures were 78 nM and 250 nM.
For `Cn1cc(-c2cnc3[nH]cc(-c4cc([C@](O)(c5ccccc5)C(F)(F)F)nc(N)n4)c3c2)cn1` (single isomer, unassigned) [A124] the same measures were 170 nM and 48 nM.
For `CC[C@](O)(c1cc(-c2c[nH]c3ncc(-c4cnn(C)c4)cc23)nc(N)n1)c1cccc(F)c1F` (single isomer, unassigned) [A125] the same measures were 7.9 nM and 14 nM.
On to `CC[C@@](O)(c1cc(-c2c[nH]c3ncc(-c4cnn(C)c4)cc23)nc(N)n1)c1cccc(F)c1F` (single isomer, unassigned) [A126], for which the IC50 turned out to be 66 nM at PDK1 and 2 nM in assay [1] (Homo sapiens, PC-3, 0.5 h).
For `CC(C)[C@@](O)(c1ccccc1)c1cc(-c2c[nH]c3ncc(-c4cnn(C)c4)cc23)nc(N)n1` (single isomer, unassigned) [A127] the same measures were 28 nM and 11 nM.
For `CC(C)[C@](O)(c1ccccc1)c1cc(-c2c[nH]c3ncc(-c4cnn(C)c4)cc23)nc(N)n1` (single isomer, unassigned) [A128] the same measures were 260 nM and 470 nM.
For `CCC[C@@](O)(c1cc(-c2c[nH]c3ncc(-c4cnn(C)c4)cc23)nc(N)n1)c1ccccc1F` (single isomer, unassigned) [A129] the same measures were 16 nM and 7 nM.
Take `CCC[C@](O)(c1cc(-c2c[nH]c3ncc(-c4cnn(C)c4)cc23)nc(N)n1)c1ccccc1F` (single isomer, unassigned) [A130]: the IC50 was determined as 71 nM on PDK1 and 18 nM in assay [1] (Homo sapiens, PC-3, 0.5 h).
With `CC[C@](O)(c1cc(-c2c[nH]c3ncc(-c4cnn(C)c4)cc23)nc(N)n1)c1ccncc1F` (single isomer, unassigned) [A131], the concentration for half-maximal inhibition (IC50) on PDK1 turned out to be 3.8 nM; in assay [1] (Homo sapiens, PC-3, 0.5 h), 11 nM.
Consider `CC[C@@](O)(c1cc(-c2c[nH]c3ncc(-c4cnn(C)c4)cc23)nc(N)n1)c1ccncc1F` (single isomer, unassigned) [A132], for which the IC50 at PDK1 was found to be 32 nM; in assay [1] (Homo sapiens, PC-3, 0.5 h), 140 nM.
With `CCC[C@](O)(c1ccncc1)c1cc(-c2c[nH]c3ncc(-c4cnn(C)c4)cc23)nc(N)n1` (single isomer, unassigned) [A133], the IC50 against PDK1 was 48 nM; in assay [1] (Homo sapiens, PC-3, 0.5 h) it was 1900 nM.
Regarding `CCC[C@@](O)(c1ccncc1)c1cc(-c2c[nH]c3ncc(-c4cnn(C)c4)cc23)nc(N)n1` (single isomer, unassigned) [A134], the IC50 at PDK1 turned out to be 4.1 nM; in assay [1] (Homo sapiens, PC-3, 0.5 h), 280 nM.
Regarding `CC[C@](O)(c1ccccc1)c1cc(-c2c[nH]c3ncc(-c4cnn(CC(=O)N5CCCCC5)c4)cc23)nc(N)n1` (single isomer, unassigned) [A135], the IC50 was 6.9 nM against PDK1 and 34 nM in assay [1] (Homo sapiens, PC-3, 0.5 h).
For `CC[C@@](O)(c1ccccc1)c1cc(-c2c[nH]c3ncc(-c4cnn(CC(=O)N5CCCCC5)c4)cc23)nc(N)n1` (single isomer, unassigned) [A136] the same measures were 210 nM and 870 nM.
As for `Cn1cc(-c2cnc3[nH]cc(-c4cc([C@@](C)(O)c5cccc(Cl)c5F)nc(N)n4)c3c2)cn1` (single isomer, unassigned) [A137], the IC50 against PDK1 was determined as 28 nM; in assay [1] (Homo sapiens, PC-3, 0.5 h), 14 nM.
For `Cn1cc(-c2cnc3[nH]cc(-c4cc([C@](C)(O)c5cccc(Cl)c5F)nc(N)n4)c3c2)cn1` (single isomer, unassigned) [A138] the same measures were 39 nM and 8900 nM.
For `COCO[C@](C)(c1ccncc1)c1cc(-c2c[nH]c3ncc(Br)cc23)nc(N)n1` (single isomer, unassigned) [A139] the same measures were 210 nM and 7000 nM.
For `COCO[C@@](C)(c1ccncc1)c1cc(-c2c[nH]c3ncc(Br)cc23)nc(N)n1` (single isomer, unassigned) [A140] the same measures were 220 nM and 8900 nM.
Regarding `CC(O)(c1ccccc1)c1cc(-c2c[nH]c3ncc(-c4cnn(C5CCNCC5)c4)cc23)nc(N)n1` (stereo not shown) [A13, 1-{2-amino-6-[5-(1-piperidin-4-yl-1H-pyrazol-4-yl)-1H-pyrrolo[2,3-b]pyridin-3-yl]pyrimidin-4-yl}-1-phenylethanol], the IC50 against PDK1 was 530 nM; in assay [1] (Homo sapiens, PC-3, 0.5 h), 1200 nM.
For `COCOC(C)(c1cc(-c2c[nH]c3ncc(-c4cnn(C)c4)cc23)nc(N)n1)c1ccccc1C` (stereo not shown) [A18, 4-(1-methoxymethoxy-1-o-tolylethyl)-6-[5-(1-methyl-1H-pyrazol-4-yl)-1H-pyrrolo[2,3-b]pyridin-3-yl]pyrimidin-2-ylamine] the same measures were 32 nM and 69 nM.
For `CCCC(O)(c1ccncc1)c1cc(-c2c[nH]c3ncc(-c4cnn(C)c4)cc23)nc(N)n1` (stereo not shown) [A35, 1-{2-amino-6-[5-(1-methyl-1H-pyrazol-4-yl)-1H-pyrrolo[2,3-b]pyridin-3-yl]-pyrimidin-4-yl}-1-pyridin-4-ylbutan-1-ol] the same measures were 3 nM and 210 nM.
For `CCC(O)(c1ccncc1)c1cc(-c2c[nH]c3ncc(-c4cnn(CC(=O)N5CCCCC5)c4)cc23)nc(N)n1` (stereo not shown) [A50, 2-(4-{3-[2-amino-6-(1-hydroxy-1-pyridin-4-ylpropyl)pyrimidin-4-yl]-1H-pyrrolo[2,3-b]pyridin-5-yl}pyrazol-1-yl)-1-piperidin-1-ylethanone] the same measures were 4 nM and 519 nM.
